Test results from US8563715B2, “Pyrimidine derivative having cell protecting effect and uses thereof” (Zenyaku Kogyo Kabushikikaisha, priority 2008, dated 2013).

First: C1=C(c2ccccc2)CCN(c2cc(N3CCOCC3)nc(N3CCOCC3)n2)C1 [Compound 41, 2,4-dimorpholino-6-[4-phenyl (1,2,5,6-tetrahydropyridin-1-yl)]pyrimidine]
Second: Fc1c(N2CCOCC2)nc(N2CC=C(c3ccccc3)CC2)nc1N1CCOCC1 [Compound 120, 5-fluoro-4,6-dimorpholino-2-[4-phenyl-1,2,5,6-tetrahydropyridin-1-yl]pyrimidine]
The melting point of the first is higher: 165 to 168 °C for the first, 132 to 135 °C for the second.

Going from `Fc1c(N2CCOCC2)nc(N2CCN(c3ccccc3Cl)CC2)nc1N1CCOCC1` [Compound 102, 2-[4-(2-chlorophenyl)piperazin-1-yl]-5-fluoro-4,6-dimorpholinopyrimidine] to `Cc1ccccc1N1CCN(c2nc(N3CCOCC3)c(F)c(N3CCOCC3)n2)CC1` [Compound 104, 5-fluoro-2-[4-(2-methylphenyl)piperazin-1-yl]-4,6-dimorpholinopyrimidine], the melting point falls from 118 °C to 72 °C.

First: CN1CCN(c2nc(N3CCN(c4ccccc4F)CC3)nc(N3CCOCC3)c2F)CC1 [Compound 185, 5-fluoro-2-[4-(2-fluorophenyl)piperazin-1-yl]-4-(4-methylpiperazin-1-yl)-6-morpholinopyrimidine]
Second: Fc1ccccc1N1CCN(c2nc(N3CCOCC3)c(F)c(N3CCOCC3)n2)CC1 [Compound 106, 5-fluoro-2-[4-(2-fluorophenyl)piperazin-1-yl]-4,6-dimorpholinopyrimidine]
The melting point of the first is lower: 128 to 129 °C for the first, 144 °C for the second.

First: O=Cc1c(N2CCOCC2)nc(N2CCN(c3ccccc3)CC2)nc1N1CCOCC1 [Compound 142, 5-formyl-4,6-dimorpholino-2-(4-phenylpiperazin-1-yl)pyrimidine]
Second: COc1c(N2CCOCC2)nc(N2CCOCC2)nc1N1CCN(c2ccccc2)CC1 [Compound 50, 5-methoxy-2,4-dimorpholino-6-(4-phenylpiperazin-1-yl)pyrimidine]
The melting point of the first is higher: 162 to 163 °C for the first, 118 to 120 °C for the second.

First: CC(=O)C1(c2ccccc2)CCN(c2nc(N3CCOCC3)cc(N3CCOCC3)n2)CC1 [Compound 38, 2-(4-acetyl-4-phenylpiperidin-1-yl)-4,6-dimorpholinopyrimidine]
Second: OC1(c2ccccc2)CCN(c2nc(N3CCOCC3)cc(N3CCOCC3)n2)CC1 [Compound 36, 2-(4-hydroxy-4-phenylpiperidin-1-yl)-4,6-dimorpholinopyrimidine]
The melting point of the first is lower: 115 to 118 °C for the first, 157 to 159 °C for the second.

`Cc1ccccc1N1CCN(c2cc(N3CCOCC3)nc(N3CCN(c4ccccc4C)CC3)n2)CC1` [Compound 62, 2,4-bis[4-(2-methylphenyl)piperazin-1-yl]-6-morpholinopyrimidine] and `Fc1ccccc1N1CCN(c2cc(N3CCOCC3)nc(N3CCN(c4ccccc4F)CC3)n2)CC1` [Compound 59, 2,4-bis[4-(2-fluorophenyl)piperazin-1-yl]-6-morpholinopyrimidine] fall in the same range of melting point: 98 to 99 °C for the first, 98 to 99 °C for the second.

Compared with `c1c(N2CCOCC2)nc(N2CCN(C3CCCCC3)CC2)nc1N1CCOCC1` [Compound 42, 2-[4-(4-cyclohexyl)piperazin-1-yl]-4,6-dimorpholinopyrimidine], `c1c(N2CCOCC2)nc(N2CCOCC2)nc1N1CCN(C2CCCCC2)CC1` [Compound 43, 4-[4-(4-cyclohexyl)piperazin-1-yl]-2,6-dimorpholinopyrimidine] is lower in melting point: 171 to 174 °C for the first, 144 to 147 °C for the second.

First: CC(C)(C)OC(=O)N1CCN(c2nc(N3CCN(c4ccccc4F)CC3)nc(N3CCOCC3)c2F)CC1 [Compound 181, 4-(4-tert-butoxycarbonylpiperazin-1-yl)-5-fluoro-2-[4-(2-fluorophenyl)piperazin-1-yl]-6-morpholinopyrimidine]
Second: CC(C)(C)OC(=O)N1CCN(c2nc(N3CCN(c4ccccc4Cl)CC3)nc(N3CCOCC3)c2F)CC1 [Compound 188, 4-(4-tert-butoxycarbonylpiperazin-1-yl)-2-[4-(2-chlorophenyl)piperazin-1-yl]-5-fluoro-6-morpholinopyrimidine]
The melting point of the first is higher: 137 to 138 °C for the first, 75 to 76 °C for the second.

Compared with `CC(=O)c1ccc(N2CCN(c3nc(N4CCOCC4)cc(N4CCOCC4)n3)CC2)cc1` [Compound 24, 2-[4-(4-acetylphenyl)piperazin-1-yl]-4,6-dimorpholinopyrimidine], `CC(=O)c1ccc(N2CCN(c3cc(N4CCOCC4)nc(N4CCOCC4)n3)CC2)cc1` [Compound 25, 4-[4-(4-acetylphenyl)piperazin-1-yl]-2,6-dimorpholinopyrimidine] is higher in melting point: 162 to 166 °C for the first, 198 to 201 °C for the second.

Compared with `Fc1ccc(N2CCN(c3nc(N4CCOCC4)cc(N4CCOCC4)n3)CC2)cc1` [Compound 20, 2-[4-(4-fluorophenyl)piperazin-1-yl]-4,6-dimorpholinopyrimidine], `Cc1ccc(N2CCN(c3nc(N4CCOCC4)cc(N4CCOCC4)n3)CC2)cc1` [Compound 22, 2-[4-(4-methylphenyl)piperazin-1-yl]-4,6-dimorpholinopyrimidine] is lower in melting point: 196 to 199 °C for the first, 191 to 194 °C for the second.

`Cc1cccc(N2CCN(c3nc(N4CCOCC4)c(F)c(N4CCN(C)CC4)n3)CC2)c1C` [Compound 184, 5-fluoro-4-(4-methylpiperazin-1-yl)-6-morpholino-2-[4-(2,3-xylyl)piperazin-1-yl]pyrimidine] and `Cc1cccc(N2CCN(c3nc(N4CCOCC4)nc(N4CCN(C)CC4)c3F)CC2)c1C` [Compound 186, 5-fluoro-4-(4-methylpiperazin-1-yl)-2-morpholino-6-[4-(2,3-xylyl)piperazin-1-yl]-pyrimidine] fall in the same range of melting point: 67 to 68 °C for the first, 67 to 68 °C for the second.

First: Fc1c(N2CCOCC2)nc(N2CCN(c3ccc(Cl)cc3)CC2)nc1N1CCOCC1 [Compound 109, 2-[4-(4-chlorophenyl)piperazin-1-yl]-5-fluoro-4,6-dimorpholinopyrimidine]
Second: Cc1ccc(N2CCN(c3nc(N4CCOCC4)c(F)c(N4CCOCC4)n3)CC2)cc1 [Compound 98, 5-fluoro-2-[4-(4-methylphenyl)piperazin-1-yl]-4,6-dimorpholinopyrimidine]
The melting point of the first is higher: 215 °C for the first, 201 to 203 °C for the second.

First: c1ccc2c(c1)CN(c1nc(N3CCOCC3)cc(N3CCOCC3)n1)C2 [Compound 10, 2-(isoindolin-2-yl)-4,6-dimorpholinopyrimidine]
Second: Cc1ccccc1N1CCN(c2nc(N3CCOCC3)cc(N3CCOCC3)n2)CC1 [Compound 28, 2-[4-(2-methylphenyl)piperazin-1-yl]-4,6-dimorpholino-pyrimidine]
The melting point of the first is higher: 194 to 198 °C for the first, 149 °C for the second.

Compared with `O=CN1CCN(c2cc(N3CCOCC3)nc(N3CCN(c4ccccc4)CC3)n2)CC1` [Compound 53, 4-(4-formylpiperazin-1-yl)-6-morpholino-2-(4-phenylpiperazin-1-yl)pyrimidine], `c1ccc(N2CCN(c3nc(N4CCOCC4)cc(N4CCOCC4)n3)CC2)cc1` [Compound 1, 4,6-dimorpholino-2-(4-phenylpiperazin-1-yl)pyrimidine] is higher in melting point: 171 to 172 °C for the first, 182 to 184 °C for the second.

Compared with `CCCCN(CCCC)c1cc(N2CCOCC2)nc(N2CCN(c3ccccc3)CC2)n1` [Compound 55, 6-dibutylamino-4-morpholino-2-(4-phenylpiperazin-1-yl)pyrimidine], `CN(C)c1c(N2CCOCC2)nc(N2CCN(c3ccccc3)CC2)nc1N1CCOCC1` [Compound 141, 5-dimethylamino-4,6-dimorpholino-2-(4-phenylpiperazin-1-yl)pyrimidine] is higher in melting point: 84 to 85 °C for the first, 208 to 210 °C for the second.

First: CC(=O)Nc1c(N2CCOCC2)nc(N2CCN(c3ccccc3)CC2)nc1N1CCOCC1 [Compound 77, 5-acetylamino-4,6-dimorpholino-2-(4-phenylpiperazin-1-yl)pyrimidine]
Second: c1ccc(Cc2c(N3CCOCC3)nc(N3CCOCC3)nc2N2CCN(c3ccccc3)CC2)cc1 [Compound 49, 5-benzyl-2,4-dimorpholino-6-(4-phenylpiperazin-1-yl)pyrimidine]
The melting point of the first is higher: 229 to 230 °C for the first, 162 to 165 °C for the second.

First: OC1(c2ccccc2)CCN(c2nc(N3CCOCC3)nc(N3CCOCC3)c2F)CC1 [Compound 117, 5-fluoro-4-(4-hydroxy-4-phenylpiperidin-1-yl)-2,6-dimorpholinopyrimidine]
Second: Fc1c(N2CCOCC2)nc(N2CCNC(c3ccccc3)C2)nc1N1CCOCC1 (stereo not drawn) [Compound 93, 5-fluoro-4,6-dimorpholino-2-(3-phenylpiperazin-1-yl)pyrimidine]
The melting point of the first is lower: 128 to 131 °C for the first, 170 to 175 °C for the second.

First: c1ccc(C2CN(c3cc(N4CCOCC4)nc(N4CCOCC4)n3)CCN2)cc1 (stereo not drawn) [Compound 17, 2,4-dimorpholino-6-(3-phenylpiperazin-1-yl)pyrimidine]
Second: c1cnc(N2CCN(c3nc(N4CCOCC4)cc(N4CCOCC4)n3)CC2)nc1 [Compound 14, 4,6-dimorpholino-2-[4-(pyrimidin-2-yl)piperazin-1-yl]pyrimidine]
The melting point of the first is lower: 181 to 185 °C for the first, 212 to 215 °C for the second.

Compared with `Fc1c(N2CCNCC2)nc(N2CCN(c3ccccc3Cl)CC2)nc1N1CCOCC1` [Compound 189, 2-[4-(2-chlorophenyl)piperazin-1-yl]-5-fluoro-4-morpholino-6-(1-piperazinyl)pyrimidine], `Fc1ccc(N2CCN(c3nc(N4CCOCC4)nc(N4CCOCC4)c3F)CC2)cc1` [Compound 97, 5-fluoro-4-[4-(4-fluorophenyl)piperazin-1-yl]-2,6-dimorpholinopyrimidine] is higher in melting point: 70 to 71 °C for the first, 171 to 174 °C for the second.

Compared with `Cc1ccccc1/C=C/c1nc(N2CCOCC2)c(N)c(N2CCOCC2)n1` [Compound 137, 5-amino-2-[2-(2-methylphenyl)vinyl]-4,6-dimorpholinopyrimidine], `COc1ccc(/C=C/c2nc(N(C)C)c(N)c(N3CCOCC3)n2)cc1` [Compound 138, 5-amino-4-dimethylamino-2-[2-(4-methoxyphenyl)vinyl]-6-morpholinopyrimidine] is lower in melting point: 151 to 154 °C for the first, 130 to 133 °C for the second.

Compared with `CN(C)c1nc(N2CCOCC2)c(F)c(N2CCN(c3ccc(Cl)cc3)CC2)n1` [Compound 113, 4-[4-(4-chlorophenyl)piperazin-1-yl]-2-dimethylamino-5-fluoro-6-morpholinopyrimidine], `COc1ccccc1N1CCN(c2nc(N(C)C)nc(N3CCOCC3)c2F)CC1` [Compound 111, 2-dimethylamino-5-fluoro-4-[4-(2-methoxyphenyl)piperazin-1-yl]-6-morpholinopyrimidine] is lower in melting point: 152 °C for the first, 108 °C for the second.
